Test results taken from patent publication US7928060B2, “Amylin family polypeptide-6 (AFP-6) analogs and methods of making and using them” (Amylin Pharmaceuticals, Inc., priority 2004, dated 2011).
Where two headings read alike, the source gives them in different places.

Experiments:
NIH/Swiss mice = experiment: acute food intake assay in overnight-fasted mice, IP injection; assay type: in vivo, mouse
Method: The effect of AFP-6 on food intake was investigated using an acute food intake assay. This assay measured food consumption in lean, group-housed, overnight-fasted NIH/Swiss mice. 12 mice were housed 3 to a cage. The sample compound, in this case AFP-6, was injected IP in mice and food intake was measured during the next 2-hours. Decreased, as well as increased, food intake can be measured. Testing various doses of the compound generated ED50's. The assay was performed as follows: 1. Remove food (water ad libitum) at 5:00 pm the evening before the study. 2. Weigh food pellets (3 pellets/cage). 3. Inject animals intraperitoneally with 200 ul of appropriate solution, t=0. 4. Immediately add pre-weighed food to each cage (away from water bottle spout) and allow animals to feed undisturbed. 5. At 30, 60, and 120 minutes, collect and weigh food. 6. Analyze data. Data points represent mean ±sd of n=12.
Twelve mice were injected IP at t=0 for each dose, 0.3, 1, 3, 10, 30, 100, or 300 nmol/kg of AFP-6 (Amylin Pharmaceuticals, Inc.) (n=12/group). Food was introduced immediately after injection and amount consumed measured at t=30, 60, and 120 min.

calcitonin receptor = experiment: cAMP production in CHO cells (AlphaScreen); assay type: cell-based; details: for EC50: CHO, 30,000 cells/well
[1] = plasma ionized calcium in rats; assay type: in vivo, rat; details: subcutaneous, samples of Example 4
Method: Using the samples obtained from Example 4, ionized calcium was measured in plasma samples obtained from gastric emptying experiments described above, using an ion selective electrode, Ciba/Corning 634 Ca/pH analyzer (Ciba/Corning, Inc., Medfield, Mass.).

adrenomedullin receptor [2] = details: bovine studies; cited from earlier work
rats = experiment: telemetry of cardiovascular parameters in conscious rats; assay type: in vivo, rat; details: 10 nmol/kg intravenous
Source text: Telemetry allows for real-time hemodynamic readings including arterial pressure, heart rate, arterial dP/dt, ECG (with waveform intervals) and core temperature via an implanted radio transmitter in conscious, non-anesthetized, unrestrained rats. […] Remote intravenous dosing is achieved through in-dwelling vascular access ports.

amylin receptors = target: T1, amylin receptors (Rattus norvegicus, UniProt P32214); experiment: amylin radioligand binding assay (125I-rat amylin, nucleus accumbens membranes); details: FIG. 10
T1 construct: This basal forebrain tissue, containing the nucleus accumbens and surrounding regions, was weighed and homogenized; from tissue; host or cells: rat basal forebrain (nucleus accumbens) membranes, male Sprague-Dawley rats
T1 sequence (P32214 25-516): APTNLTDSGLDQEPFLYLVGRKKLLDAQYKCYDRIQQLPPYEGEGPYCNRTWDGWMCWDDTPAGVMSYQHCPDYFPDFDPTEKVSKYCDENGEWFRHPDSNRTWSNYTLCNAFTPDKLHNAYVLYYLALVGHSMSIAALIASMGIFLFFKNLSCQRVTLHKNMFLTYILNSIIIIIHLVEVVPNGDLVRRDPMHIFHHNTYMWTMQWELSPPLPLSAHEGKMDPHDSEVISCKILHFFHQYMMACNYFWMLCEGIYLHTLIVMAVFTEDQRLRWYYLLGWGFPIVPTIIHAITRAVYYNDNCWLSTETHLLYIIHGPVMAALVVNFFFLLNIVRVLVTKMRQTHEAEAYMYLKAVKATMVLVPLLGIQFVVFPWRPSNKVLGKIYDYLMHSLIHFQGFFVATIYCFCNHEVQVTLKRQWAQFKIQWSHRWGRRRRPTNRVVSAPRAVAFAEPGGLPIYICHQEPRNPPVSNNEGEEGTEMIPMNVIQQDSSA
Procedure, shortened: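 Membranes from male Sprague-Dawley rat brain region rostral to hypothalamus, washed and resuspended in 20 mM HEPES with 0.2 mM PMSF. Incubation 60 min at 2 C, then filtration with cold PBS washes.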

Sprague-Dawley rats = experiment: 1-week continuous subcutaneous infusion in high fat-fed rats: food intake and body weight; assay type: in vivo, rat; details: 75 nmol/kg/day
Source text: Individually housed male Sprague-Dawley® rats (beginning weight=310 g; 12-h light/dark cycle) were maintained on a high fat (HF) diet (Research Diet 58% kcal from fat). Rats were fattened for 34 days. At the end of the fattening period, 7-day osmotic pumps (Durect Corp.) were implanted interscapularly under anesthesia (body weight at time of implant=403 g). The rats received pumps delivering compound or vehicle (50% DMSO). The following compounds were examined at a 75 nmol/kg/day dose: AFP-6, and an AFP-6 analog SEQ ID NO:32. Food intake and body weight measurements were obtained on day 2 and day 7. Group differences were analyzed using analysis of variance (ANOVA) and Fisher's Least-Significant Difference test.

CGRP receptors = target: T2, CGRP receptors (Homo sapiens, UniProt O60894+Q16602); experiment: CGRP radioligand binding assay (125I-hCGRP, SK-N-MC cell membranes); details: FIG. 11
T2 construct: membranes prepared from SK-N-MC cells, known to express CGRP receptors; endogenous in cells; host or cells: SK-N-MC cell membranes

adrenomedullin receptor [3] = target: adrenomedullin receptor (Homo sapiens, UniProt O60895+Q16602); experiment: cAMP production in HUVECs (AlphaScreen); assay type: cell-based; design: tested for bioactivity in HUVECs that contain the adrenomedullin receptor; endogenous in cells; host or cells: HUVEC
Sequence of adrenomedullin receptor (Homo sapiens, UniProt O60895+Q16602) (Q16602 23-461): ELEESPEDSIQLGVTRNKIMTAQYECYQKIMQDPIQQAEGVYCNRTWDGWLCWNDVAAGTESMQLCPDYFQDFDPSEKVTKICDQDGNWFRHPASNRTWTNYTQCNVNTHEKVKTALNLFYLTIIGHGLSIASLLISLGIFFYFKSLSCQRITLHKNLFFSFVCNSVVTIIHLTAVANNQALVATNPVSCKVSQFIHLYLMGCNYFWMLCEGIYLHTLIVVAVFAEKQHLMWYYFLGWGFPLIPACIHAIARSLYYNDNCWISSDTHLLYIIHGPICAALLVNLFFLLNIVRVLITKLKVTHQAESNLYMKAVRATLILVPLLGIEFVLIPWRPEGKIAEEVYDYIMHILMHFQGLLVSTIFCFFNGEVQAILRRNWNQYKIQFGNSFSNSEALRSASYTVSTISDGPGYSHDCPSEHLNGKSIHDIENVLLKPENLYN
Sequence of adrenomedullin receptor (Homo sapiens, UniProt O60895+Q16602) (O60895 43-175): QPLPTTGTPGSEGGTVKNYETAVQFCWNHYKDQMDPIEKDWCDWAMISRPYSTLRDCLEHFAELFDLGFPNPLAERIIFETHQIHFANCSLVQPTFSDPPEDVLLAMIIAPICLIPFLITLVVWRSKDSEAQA

T2 sequence (Q16602 23-461): as the sequence (Q16602 23-461) above
T2 sequence (O60894 27-148): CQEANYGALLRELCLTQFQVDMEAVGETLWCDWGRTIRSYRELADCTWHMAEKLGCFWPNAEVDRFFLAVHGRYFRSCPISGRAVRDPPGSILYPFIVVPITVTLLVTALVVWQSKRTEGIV

CSCC[C@H](NC(=O)[C@H](CC(C)C)NC(=O)[C@H](CCC(N)=O)NC(=O)[C@H](Cc1c[nH]c2ccccc12)NC(=O)[C@H](CC(C)C)NC(=O)[C@H](CCCNC(=N)N)NC(=O)[C@H](Cc1c[nH]cn1)NC(=O)[C@H](CO)NC(=O)[C@H](CC(C)C)NC(=O)[C@H](CC(N)=O)NC(=O)[C@H](CCC(N)=O)NC(=O)[C@@H](NC(=O)[C@H](CCC(N)=O)NC(=O)[C@@H]1CSSC[C@H](NC(=O)CNC(=O)[C@@H](NC(=O)[C@H](CCCNC(=N)N)NC(=O)[C@H](CC(C)C)NC(=O)[C@H](CC(C)C)NC(=O)[C@H](CCC(N)=O)NC(=O)[C@H](C)NC(=O)[C@H](CCC(N)=O)NC(=O)[C@@H](N)[C@@H](C)O)C(C)C)C(=O)N[C@@H](C(C)C)C(=O)N[C@@H](CC(C)C)C(=O)NCC(=O)N[C@@H]([C@@H](C)O)C(=O)N1)C(C)C)C(=O)NCC(=O)N1CCC[C@H]1C(=O)N[C@@H](C)C(=O)NCC(=O)N[C@@H](CCCNC(=N)N)C(=O)N[C@@H](CCC(N)=O)C(=O)N[C@@H](CC(=O)O)C(=O)N[C@@H](CO)C(=O)N[C@@H](C)C(=O)N1CCC[C@H]1C(=O)N[C@H](C(=O)N[C@@H](CC(=O)O)C(=O)N1CCC[C@H]1C(=O)N[C@@H](CO)C(=O)N[C@@H](CO)C(=O)N1CCC[C@H]1C(=O)N[C@@H](Cc1c[nH]cn1)C(=O)N[C@@H](CO)C(=O)N[C@@H](Cc1ccc(O)cc1)C(N)=O)C(C)C [SEQ ID NO: 1]
inhibition of food intake (NIH/Swiss mice; 1 mg/kg IP, mice): 91% | ED50, short-term food intake (NIH/Swiss mice; 60 min time point, 0.3-300 nmol/kg IP, non-linear regression): 19 nmol/kg | FI 30 min ED50 (NIH/Swiss mice; food intake, 30 min): 9 to 14 nmol/kg | FI 60 min ED50 (NIH/Swiss mice; food intake, 60 min): 14 to 19 nmol/kg | EC50 (calcitonin receptor; average of three experiments, read-out: Average EC50): 9.63 nM | EC50 (calcitonin receptor; read-out: Experiment 1 EC50): 11.3 nM | EC50 (calcitonin receptor; read-out: Experiment 2 EC50): 10.6 nM | EC50 (calcitonin receptor; read-out: Experiment 3 EC50): 7 nM | rank order of potency in CHO cells (calcitonin receptor; cAMP, FIG. 9): AFP-6>adrenomedullin=CGRP alpha | rank order of potency, CHO cell experiments (calcitonin receptor; cAMP, panel of related peptides): calcitonin >AFP-6>amylin >hCGRP alpha>adrenomedullin | ED50, decrease of plasma ionized calcium [1]: 0.025 mg/kg | binding at the adrenomedullin receptor (adrenomedullin receptor [2]): 1 to 5 nM | profile over all three cardiovascular parameters (rats): profile more amylin-like than adrenomedullin like | rank order of potency, displacement of bound amylin (amylin receptors): amylin >CGRP>AFP-6 >>adrenomedullin>calcitonin | body weight gain compared to Vehicle (Sprague-Dawley rats; Day 7): significantly less body weight gain than Vehicle | percent body weight loss (vehicle-corrected) (Sprague-Dawley rats; Day 7): 3.2% | food intake compared to Vehicle (Sprague-Dawley rats; after 2 days of treatment): significantly reduced food intake | rank order, displacement of CGRP (CGRP receptors): CGRP >adrenomedullin >AFP-6 >amylin>>calcitonin | increase of cAMP levels (adrenomedullin receptor [3]; HUVECs, 1 μM and 10 nM): active in increasing cAMP levels | rank order of potency in HUVECs (adrenomedullin receptor [3]; cAMP, FIG. 9): adrenomedullin >AFP-6>>CGRP alpha
